Laboratory results from publication PMC6925768, “Determination of Anlotinib, a Tyrosine Kinase Inhibitor, in Rat Plasma by UHPLC-MS/MS and Its Application to a Pharmacokinetic Study” (Journal of Analytical Methods in Chemistry, 2019).
Where two headings read alike, the source gives them in different places.

Assays:
[1] = Stability of stock solutions; type: physicochemical; settings: stock solution in methanol; for Stability of stock solution, long-term test: 4°C for 2 weeks; for Stability of stock solution, short-term test: room temperature for 24 hours
Experimental: (§1) The stability of three concentrations (0.25, 5, 40 ng/mL) of QCs was analyzed under typical storage conditions: (1) rat plasma stored at room temperature for 12 hours (short-term stability); (2) rat plasma stored at −80°C for 30 days (long-term stability); and (3) under three freeze-thaw cycles from −80°C to room temperature. The stability of stock solution of anlotinib and IS was analyzed under room temperature for 24 hours as well as at 4°C for 2 weeks.

[2] = Pharmacokinetic study in rats after single oral administration; type: in vivo, Sprague Dawley rats; settings: 10 mg/kg
Experimental: Male Sprague Dawley rats weighing 250 ± 20 g were purchased from the Shanghai Laboratory Animal Co. (Shanghai, China). All experimental rats were housed in a standard cage with a humidity of 50 ± 20%, a constant temperature of 23–25°C, and a light/dark cycle condition for at least 7 days before the pharmacokinetic study. After 8 h fasting (animals had free access to water), the rats received a single oral administration with anlotinib at a dosage of 10 mg/kg. All animal experiments in present study were approved by the Institutional Animal Care and Use Committee of Wenzhou Medical University (Wenzhou, China).
Blood samples (150 μL) were collected from the tail vein before the dose and at 0.17, 0.75, 1, 1.5, 2, 3, 4, 5, 7, 9, 12, 24, and 48 h after the oral administration of anlotinib. These series of blood samples were transferred into 1.5 mL heparinized tubes. The rat blood samples were immediately centrifuged for 10 min at 5,000 rpm at 4°C, and then the separation of plasma was stored at −80°C until analysis. The noncompartmental statistical model was performed to calculate the pharmacokinetic parameters of anlotinib by Drug and Statistics 3.0 software.

[3] = system: advanced non-small-cell lung cancer; set-up: method as in PMID 30098152; settings: advanced non-small-cell lung cancer after second-line or further treatment; cited from earlier work
[4] = set-up: method as in PMID 29620050; settings: reported literature, different dose; cited from earlier work
[5] = Stability of anlotinib in rat plasma under various storage conditions; type: in vitro ADME; settings: n = 3; for Short-term stability, Mean / Short-term stability, RE: room temperature 12 hours; for Freeze/thaw stability, Mean / Freeze/thaw stability, RE: three freeze-thaw cycles −80°C to room temperature; for Long-term stability, Mean / Long-term stability, RE: −80°C 30 days
Experimental: as §1

[6] = system: human tumor xenograft models; set-up: method as in PMID 27716285; settings: especially colon, ovarian, liver, renal, glioma, non-small-cell lung; cited from earlier work
[7] = system: refractory advanced non-small-cell lung cancer; set-up: method as in PMID 29438373; settings: patients with refractory advanced non-small-cell lung cancer; cited from earlier work
[8] = male, Sprague Dawley, rat plasma, n = 6
[9] = male, Sprague Dawley, rat, plasma, po, n = 6

Question: Which results are given for COc1cc2c(Oc3ccc4[nH]c(C)cc4c3F)ccnc2cc1OCC1(N)CC1 [anlotinib, Anlotinib]?
Answer: Stability of stock solution, long-term test [1]: 95.96%; Stability of stock solution, short-term test [1]: 98.96%; AUC(0-inf) [2, 8]: 186 ± 49.2 ng·h/mL; CL/F [2, 8]: 942 mL/min/kg; MRT last ([2]; male, Sprague Dawley, rat plasma, n = 6, read-out: MRT(0-t)): 8.98 ± 1.45 h; MRT inf ([2]; male, Sprague Dawley, rat plasma, n = 6, read-out: MRT(0-∞)): 9.2 ± 1.21 h; half-life ([2]; male, Sprague Dawley, rat plasma, n = 6, read-out: t 1/2 z (converted)): 5.05 ± 0.62 h; Cmax [2, 9]: 24.2 ± 4.31 ng/mL; Tmax [2, 9]: 3.33 h; AUC0-t ([2]; male, Sprague Dawley, rat, plasma, po, n = 6, read-out: AUC0-t): 184 ± 49.8 ng·h/mL; AUC0-t ([2]; rat plasma, n = 6): 184.431 ± 49.827 ng·h/mL; C max ([2]; rat plasma, n = 6): 24.219 ± 4.311 ng/mL; T max ([2]; rat plasma, n = 6): 3.333 ± 0.816 h; V/F ([2]; rat plasma, n = 6): 406.029 ± 72.748 L/kg; Overall survival and progression-free survival [3]: improve overall survival (OS) and progression-free survival (PFS); t1/2 [4]: 5.7 ± 3.1 h; Short-term stability, Mean ([5]; 0.25 ng/ml in rat plasma): 0.26 ng/mL; Short-term stability, RE ([5]; 0.25 ng/ml in rat plasma): 4.65%; Freeze/thaw stability, Mean ([5]; 0.25 ng/ml in rat plasma): 0.26 ng/mL; Freeze/thaw stability, RE ([5]; 0.25 ng/ml in rat plasma): 2.03%; Long-term stability, Mean ([5]; 0.25 ng/ml in rat plasma): 0.25 ng/mL; Long-term stability, RE ([5]; 0.25 ng/ml in rat plasma): −1.55%; Autosampler stability, Mean ([5]; 0.25 ng/ml): 0.24 ng/mL; Autosampler stability, RE ([5]; 0.25 ng/ml): −2.27%; Short-term stability, Mean ([5]; 5 ng/ml in rat plasma): 5.21 ng/mL; Short-term stability, RE ([5]; 5 ng/ml in rat plasma): 4.27%; Freeze/thaw stability, Mean ([5]; 5 ng/ml in rat plasma): 4.94 ng/mL; Freeze/thaw stability, RE ([5]; 5 ng/ml in rat plasma): −1.13%; Long-term stability, Mean ([5]; 5 ng/ml in rat plasma): 5.19 ng/mL; Long-term stability, RE ([5]; 5 ng/ml in rat plasma): 3.75%; Autosampler stability, Mean ([5]; 5 ng/ml): 5.14 ng/mL; Autosampler stability, RE ([5]; 5 ng/ml): 2.75%; Short-term stability, Mean ([5]; 40 ng/ml in rat plasma): 41.64 ng/mL; Short-term stability, RE ([5]; 40 ng/ml in rat plasma): 4.1%; Freeze/thaw stability, Mean ([5]; 40 ng/ml in rat plasma): 40.55 ng/mL; Freeze/thaw stability, RE ([5]; 40 ng/ml in rat plasma): 1.39%; Long-term stability, Mean ([5]; 40 ng/ml in rat plasma): 41.19 ng/mL; Long-term stability, RE ([5]; 40 ng/ml in rat plasma): 2.97%; Autosampler stability, Mean ([5]; 40 ng/ml): 41.14 ng/mL; Autosampler stability, RE ([5]; 40 ng/ml): 2.85%; Activity against human tumor xenograft models [6]: broad activity; Progression-free survival versus placebo [7]: obvious progression-free survival (PFS) benefits; Toxicity tolerance [7]: good toxicity tolerance

Question: Which results are given for Cc1ccc(NC(=O)c2ccc(CN3CCN(C)CC3)cc2)cc1Nc1nccc(-c2cccnc2)n1 [IS, Imatinib]?
Answer: Stability of stock solution, long-term test [1]: 98.73%; Stability of stock solution, short-term test [1]: 99.35%
